Reference: ChEMBL document CHEMBL1212870, “Concise synthesis of 5,6-dihydrovaltrate leading to enhanced Rev-export inhibitory congener” (Bioorg Med Chem, 2010)

Experiment: Inhibition of hemagglutininin-tagged HIV1 Rev protein nuclear export in human HeLa cells assessed as localization by indirect fluorescent antibody technique
Type: cell-based, Human immunodeficiency virus 1

Compound | IC50 [nM]
CC(=O)OCC1=CO[C@@H](OC(=O)CC(C)C)[C@H]2[C@@H]1C[C@H](OC(=O)CC(C)C)[C@]21CO1 | 4400
CCCCOCC1=CO[C@@H](OC(=O)CC(C)C)[C@H]2[C@@H]1C[C@H](OC(=O)CC(C)C)[C@]21CO1 | 3300
CC(=O)OCC1=CO[C@@H](OC(C)=O)[C@H]2[C@@H]1C[C@H](OC(=O)CC(C)C)[C@]21CO1 | 1000
CC(=O)OCC1=CO[C@@H](OC(=O)CC(C)C)[C@H]2[C@@H]1C[C@H](OC(C)=O)[C@]21CO1 | 2600
CC(=O)OCC1=CO[C@@H](OC(=O)CC(C)C)[C@H]2C1=C[C@H](OC(=O)CC(C)C)[C@]21CO1 [VALTRATE] | 2500
